The values that follow come from US12122763B2, “Substituted piperidines for androgen receptor degradation” (UBIX THERAPEUTICS, INC., priority 2020, dated 2024).

For the experiment, the target named is T1, Androgen Receptor (AR) protein (Homo sapiens, UniProt P10275, T878A).
T1 construct: endogenous in cells; host or cells: LNCaP
The experiment in a line: Androgen Receptor (AR) protein degradation assay in LNCaP cells, western blotting. The experiment is classed as cell-based. The note with it: 20 h; for inhibition at 0.01 µM: 0.01 μM compound; for inhibition at 0.1 µM: 0.1 μM compound; for inhibition at 1 µM: 1 μM compound. The essentials:
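LNCaP prostate cancer cells were cultured 3 days, then treated with compound for 20 h. Lysates in 1% SDS buffer were normalised by BCA, and 8 μg protein was run on 4–12% Bis-Tris gels. AR was immunoblotted with chemiluminescence, using GAPDH/β-actin as loading controls.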

T1 sequence (P10275 whole entry T878A): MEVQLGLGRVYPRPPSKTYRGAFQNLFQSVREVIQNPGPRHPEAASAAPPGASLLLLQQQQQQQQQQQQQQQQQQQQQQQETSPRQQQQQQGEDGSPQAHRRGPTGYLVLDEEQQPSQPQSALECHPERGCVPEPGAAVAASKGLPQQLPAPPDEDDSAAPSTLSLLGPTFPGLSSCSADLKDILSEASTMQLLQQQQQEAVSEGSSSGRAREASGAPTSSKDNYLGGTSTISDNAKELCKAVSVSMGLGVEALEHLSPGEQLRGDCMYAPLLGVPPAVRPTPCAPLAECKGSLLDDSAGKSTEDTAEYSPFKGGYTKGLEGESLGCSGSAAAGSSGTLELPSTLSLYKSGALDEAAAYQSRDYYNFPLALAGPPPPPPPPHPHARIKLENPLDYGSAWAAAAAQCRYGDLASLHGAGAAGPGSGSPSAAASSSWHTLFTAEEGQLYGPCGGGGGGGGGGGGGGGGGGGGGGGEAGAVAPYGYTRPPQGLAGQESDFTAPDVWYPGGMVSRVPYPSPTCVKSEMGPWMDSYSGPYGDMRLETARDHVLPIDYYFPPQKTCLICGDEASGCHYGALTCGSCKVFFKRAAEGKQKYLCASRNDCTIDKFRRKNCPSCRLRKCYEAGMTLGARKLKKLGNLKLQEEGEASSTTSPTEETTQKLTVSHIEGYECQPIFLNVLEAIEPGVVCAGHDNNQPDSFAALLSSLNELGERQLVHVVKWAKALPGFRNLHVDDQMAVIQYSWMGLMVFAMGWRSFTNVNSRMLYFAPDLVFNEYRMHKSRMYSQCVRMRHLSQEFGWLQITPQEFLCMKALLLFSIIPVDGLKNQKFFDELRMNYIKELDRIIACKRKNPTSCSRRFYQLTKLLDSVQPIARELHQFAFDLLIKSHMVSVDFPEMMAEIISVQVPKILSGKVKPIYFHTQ
T1 sequence (Q96SW2 whole entry partner): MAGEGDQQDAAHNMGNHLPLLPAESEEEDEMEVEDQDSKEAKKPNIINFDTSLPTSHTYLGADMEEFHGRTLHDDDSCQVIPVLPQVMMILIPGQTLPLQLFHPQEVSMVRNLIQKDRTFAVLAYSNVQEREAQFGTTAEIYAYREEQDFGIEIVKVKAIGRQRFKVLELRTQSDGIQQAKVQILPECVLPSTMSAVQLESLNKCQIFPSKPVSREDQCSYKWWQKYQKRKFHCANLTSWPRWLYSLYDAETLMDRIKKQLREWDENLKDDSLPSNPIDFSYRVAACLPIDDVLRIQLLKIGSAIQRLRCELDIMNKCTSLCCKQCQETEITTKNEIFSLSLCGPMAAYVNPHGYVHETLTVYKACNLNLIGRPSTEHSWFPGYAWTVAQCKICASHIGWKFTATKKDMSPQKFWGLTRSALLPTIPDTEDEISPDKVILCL

As usually defined, the inhibition is how much of the control response was suppressed. A high value points to strong suppression. Molecule `N#Cc1ccc(N2CCC(F)(C(=O)Nc3ccc(N4CCC(CN5CC6(CCN(c7ccc8c(c7)CN(C7CCC(=O)NC7=O)C8=O)CC6)C5)CC4)cn3)CC2)cc1C(F)(F)F` (stereo not drawn) [Example 136, 1-(4-cyano-3-(trifluoromethyl)phenyl)-N-(5-(4-((7-(2-(2,6-dioxopiperidin-3-yl)-1-oxoisoindolin-5-yl)-2,7-diazaspiro[3.5]nonan-2-yl)methyl)piperidin-1-yl)pyridin-2-yl)-4-fluoropiperidine-4-carboxamide] gave an inhibition at 0.01 µM of 38%, an inhibition at 0.1 µM of 92% and an inhibition at 1 µM of 91%.

In turn, `N#Cc1ncc(N2CCC(C(=O)Nc3ccc(N4CCC(CN5CC6(CCN(c7ccc8c(c7)CN(C7CCC(=O)NC7=O)C8=O)CC6)C5)CC4)cn3)CC2)cc1C(F)(F)F` (stereo not drawn) [Example 137, 1-(6-cyano-5-(trifluoromethyl)pyridin-3-yl)-N-(5-(4-((7-(2-(2,6-dioxopiperidin-3-yl)-1-oxoisoindolin-5-yl)-2,7-diazaspiro[3.5]nonan-2-yl)methyl)piperidin-1-yl)pyridin-2-yl)piperidine-4-carboxamide] registered an inhibition at 0.01 µM of 46%, an inhibition at 0.1 µM of 86% and an inhibition at 1 µM of 82%.

Consider `N#Cc1ccc(N2CCC(C(=O)Nc3ccc(N4CCC(CCN5CC6(CCN(c7ccc8c(c7)CN(C7CCC(=O)NC7=O)C8=O)CC6)C5)CC4)cn3)CC2)cc1C(F)(F)F` (stereo not drawn) [Example 138, 1-(4-cyano-3-(trifluoromethyl)phenyl)-N-(5-(4-(2-(7-(2-(2,6-dioxopiperidin-3-yl)-1-oxoisoindolin-5-yl)-2,7-diazaspiro[3.5]nonan-2-yl)ethyl)piperidin-1-yl)pyridin-2-yl)piperidine-4-carboxamide], for which the inhibition at 0.01 µM came out at 52%, at 0.1 µM the inhibition was 95% and testing at 1 µM gave an inhibition of 90%.

Molecule `N#Cc1ccc(N2CCC(C(=O)Nc3ccc(N4CCC(CCN5CCN(c6ccc7c(c6)CN(C6CCC(=O)NC6=O)C7=O)CC5)CC4)cn3)CC2)cc1C(F)(F)F` (stereo not drawn) [Example 139, 1-(4-cyano-3-(trifluoromethyl)phenyl)-N-(5-(4-(2-(4-(2-(2,6-dioxopiperidin-3-yl)-1-oxoisoindolin-5-yl)piperazin-1-yl)ethyl)piperidin-1-yl)pyridin-2-yl)piperidine-4-carboxamide] had an inhibition at 0.01 µM of 30%, an inhibition at 0.1 µM of 92% and an inhibition at 1 µM of 84%.

In turn, `N#Cc1ccc(N2CCC(C(=O)Nc3ccc(N4CCC(CN5CCN(C6CCN(c7ccc8c(c7)CN(C7CCC(=O)NC7=O)C8=O)CC6)CC5)CC4)cn3)CC2)cc1C(F)(F)F` (stereo not drawn) [Example 140, 1-(4-cyano-3-(trifluoromethyl)phenyl)-N-(5-(4-((4-(1-(2-(2,6-dioxopiperidin-3-yl)-1-oxoisoindolin-5-yl)piperidin-4-yl)piperazin-1-yl)methyl)piperidin-1-yl)pyridin-2-yl)piperidine-4-carboxamide] registered an inhibition at 0.01 µM of 87%, an inhibition at 0.1 µM of 98% and an inhibition at 1 µM of 95%.

In turn, `N#Cc1ccc(N2CCC(F)(C(=O)Nc3ccc(N4CCC(CN5CCN(C6CCN(c7ccc8c(c7)CN(C7CCC(=O)NC7=O)C8=O)CC6)CC5)CC4)cn3)CC2)cc1C(F)(F)F` (stereo not drawn) [Example 141, 1-(4-cyano-3-(trifluoromethyl)phenyl)-N-(5-(4-((4-(1-(2-(2,6-dioxopiperidin-3-yl)-1-oxoisoindolin-5-yl)piperidin-4-yl)piperazin-1-yl)methyl)piperidin-1-yl)pyridin-2-yl)-4-fluoropiperidine-4-carboxamide] gave an inhibition at 0.01 µM of 66%, an inhibition at 0.1 µM of 92% and an inhibition at 1 µM of 90%.

`N#Cc1ncc(N2CCC(C(=O)Nc3ccc(N4CCC(CN5CCN(C6CCN(c7ccc8c(c7)CN(C7CCC(=O)NC7=O)C8=O)CC6)CC5)CC4)cn3)CC2)cc1C(F)(F)F` (stereo not drawn) [Example 142, 1-(6-cyano-5-(trifluoromethyl)pyridin-3-yl)-N-(5-(4-((4-(1-(2-(2,6-dioxopiperidin-3-yl)-1-oxoisoindolin-5-yl)piperidin-4-yl)piperazin-1-yl)methyl)piperidin-1-yl)pyridin-2-yl)piperidine-4-carboxamide] displayed an inhibition at 0.01 µM of 55%, an inhibition at 0.1 µM of 87% and an inhibition at 1 µM of 83%.

Take `N#Cc1ccc(N2CCC(C(=O)Nc3ccc(N4CCC(CN5CCN(CC6CCN(c7ccc8c(c7)CN(C7CCC(=O)NC7=O)C8=O)CC6)CC5)CC4)cn3)CC2)cc1C(F)(F)F` (stereo not drawn) [Example 143, 1-(4-cyano-3-(trifluoromethyl)phenyl)-N-(5-(4-((4-((1-(2-(2,6-dioxopiperidin-3-yl)-1-oxoisoindolin-5-yl)piperidin-4-yl)methyl)piperazin-1-yl)methyl)piperidin-1-yl)pyridin-2-yl)piperidine-4-carboxamide]: the inhibition at 0.01 µM was 73%, the inhibition at 0.1 µM was found to be 97% and testing at 1 µM gave an inhibition of 97%.

Regarding `N#Cc1ccc(N2CCC(F)(C(=O)Nc3ccc(N4CCC(CN5CCN(CC6CCN(c7ccc8c(c7)CN(C7CCC(=O)NC7=O)C8=O)CC6)CC5)CC4)cn3)CC2)cc1C(F)(F)F` (stereo not drawn) [Example 144, 1-(4-cyano-3-(trifluoromethyl)phenyl)-N-(5-(4-((4-((1-(2-(2,6-dioxopiperidin-3-yl)-1-oxoisoindolin-5-yl)piperidin-4-yl)methyl)piperazin-1-yl)methyl)piperidin-1-yl)pyridin-2-yl)-4-fluoropiperidine-4-carboxamide], the inhibition at 0.01 µM amounted to 43%, the inhibition at 0.1 µM is 84% and testing at 1 µM gave an inhibition of 95%.

As for `N#Cc1ncc(N2CCC(C(=O)Nc3ccc(N4CCC(CN5CCN(CC6CCN(c7ccc8c(c7)CN(C7CCC(=O)NC7=O)C8=O)CC6)CC5)CC4)cn3)CC2)cc1C(F)(F)F` (stereo not drawn) [Example 145, 1-(6-cyano-5-(trifluoromethyl)pyridin-3-yl)-N-(5-(4-((4-((1-(2-(2,6-dioxopiperidin-3-yl)-1-oxoisoindolin-5-yl)piperidin-4-yl)methyl)piperazin-1-yl)methyl)piperidin-1-yl)pyridin-2-yl)piperidine-4-carboxamide], at 0.01 µM the inhibition was 20%, the inhibition at 0.1 µM came to 84% and testing at 1 µM gave an inhibition of 88%.

For `N#Cc1ccc(N2CCC(C(=O)Nc3ccc(N4CCC(CN5CCC(Oc6ccc7c(c6)C(=O)N(C6CCC(=O)NC6=O)C7=O)CC5)CC4)cn3)CC2)cc1C(F)(F)F` (stereo not drawn) [Example 146, 1-(4-cyano-3-(trifluoromethyl)phenyl)-N-(5-(4-((4-((2-(2,6-dioxopiperidin-3-yl)-1,3-dioxoisoindolin-5-yl)oxy)piperidin-1-yl)methyl)piperidin-1-yl)pyridin-2-yl)piperidine-4-carboxamide], 0.01 µM produced 67% inhibition, the inhibition at 0.1 µM was 97% and the inhibition at 1 µM worked out at 98%.

Take `N#Cc1ccc(N2CCC(C(=O)Nc3ccc(N4CCC(CN5CCC(COc6ccc7c(c6)C(=O)N(C6CCC(=O)NC6=O)C7=O)CC5)CC4)cn3)CC2)cc1C(F)(F)F` (stereo not drawn) [Example 147, 1-(4-cyano-3-(trifluoromethyl)phenyl)-N-(5-(4-((4-(((2-(2,6-dioxopiperidin-3-yl)-1,3-dioxoisoindolin-5-yl)oxy)methyl)piperidin-1-yl)methyl)piperidin-1-yl)pyridin-2-yl)piperidine-4-carboxamide]: the inhibition at 0.01 µM turned out to be 68%, the inhibition at 0.1 µM came to 96% and the inhibition at 1 µM was 97%.
